Measurements taken from patent publication US20250129086A1, “COMPOUND FOR DEGRADING EGFR PROTEIN AND USE THEREOF” (TYK MEDICINES, INC., priority 2021, published 2025).

Tests used:
Format in all cases: cell-based, human
[1] = test system: H1975 (EGFR L858R/T790M double mutation); assay: Cell antiproliferative assay (CTG, 72 h), H1975; details: Homo sapiens
Protocol: (§1) Test Example 1 Cell Antiproliferative Assay
(§2) H1975: with EGFR: L858R/T790M double mutation; PC-9 with EGFR exon 19 deletion, HCC827 with exon 19 deletion mutation. CellCounting-Lite2.0, Trypsin EDTA, 37° C. CO2 incubator, cell counter, EnVision Serial No.1050454. II. Experimental preparation:
(§3) • (A) Trypsin EDTA was used to digest log-phase cells, medium was added to terminate the reaction, and a cell suspension was made by blowing and mixing with a pipette. • (B) Cell concentration was determined using Vi-cell, and a suspension of 15,000-25,000 cells per milliliter was made depending on the purpose of the experiment and the characteristics of the cells. • (C) After the cell suspension was prepared, it was gently mixed and 100 microliters per well was added so that the density of cells to be tested was 1500-2500 per well.
(§4) • (A) About 2 mg of compound was weighed, and the volume of DMSO required was calculated according to the formula: compound mass (mg)*compound purity (%)/compound molecular weight*1000 • (B) The inoculated cell culture plates were incubated in an incubator and the compounds with concentration gradient were added after about 24 hours. • (C)10 Mm of compound stock solution was diluted to […] with medium, and 50 Mm of compound solution was added sequentially to the second column of the deep-well plate, and […] of medium containing 0.5% DMSO was added to the third to eleventh columns. • (D) Gradient dilution: 125 μl of solution was pipetted from the second column and added to the third column, after mixing; another 125 μl of solution was pipetted from the third column and added to the fourth column, and the operation was repeated until the tenth column. • (E)25 μl of compound was pipetted from the deep-well plate into a 96-well culture plate using a multichannel pipette, and each compound was repeated three times on the 96-well plate. A maximum concentration of 10,000 nm with concentration gradient of 1:4 was eventually formed on the 96-well plate.
(§5) • (A)96-well plates were incubated in an incubator for 72 h. The effect of the compounds was observed under an inverted microscope. • (B)25 μl of CTG solution was added to each well, the plate was put on shaker for 10 minutes and the […] of each well was read.
(§6) The cell viability rate (% Cell Viability) was calculated using the following formula: • % Cell Viability=100%×(Lum_Sample-Lum_LC)/(Lum_HC-Lum_LC) • Lum_HC: Cell reading of 0.1% DMSO control • Lum_Sample: Cell reading with compound added • Lum_LC: Reading of Blank media • IC50 values were obtained by curve fitting with GraphPad Prism 8 software.

[2] = test system: HCC827 (exon 19 deletion mutation); assay: Cell antiproliferative assay (CTG, 72 h), HCC827; details: Homo sapiens, Table 2, HCC827 cells
Protocol: as §1, §2, §3, §4, §5, §6

[3] = test system: PC-9 (EGFR exon 19 deletion); assay: Cell antiproliferative assay (CTG, 72 h), PC-9; details: Homo sapiens, Table 2, PC-9 cells
Protocol: as §1, §2, §3, §4, §5, §6

[4] = NCI-H1975, 72 h, Table 2, H1975 cells

| SMILES | IC50 [1, 4] [nM] | IC50 ([2]; HCC827, 72 h) [nM] | IC50 ([3]; PC-9, 72 h) [nM] | IC50 ([1]; NCI-H1975, Table 2, H1975 cells) [nM] | IC50 [2] [nM] | IC50 [3] [nM] |
| --- | --- | --- | --- | --- | --- | --- |
| COc1cc(N2CCN(C(=O)CN3CCC(c4ccc(NC5CCC(=O)NC5=O)cc4)CC3)CC2)ccc1Nc1ncc(Cl)c(Nc2ccccc2C#N)n1 (stereo not drawn) [Compound T-139] | 100 to 1000 | 100 to 1000 | ≥ 1000 |  |  |  |
| O=C1CCC(Nc2ccc(C3CCN(CC(=O)N4CCN(c5ccc(-c6cc(F)c7c(c6)C(=O)N(C(C(=O)Nc6nccs6)c6ccccc6F)C7)cc5)CC4)CC3)cc2)C(=O)N1 (stereo not drawn) [Compound T-140] | 10 to 100 | 100 to 1000 | 100 to 1000 |  |  |  |
| COc1cc(N2CCN(C(=O)CN3CCC(c4ccc(NC5CCC(=O)NC5=O)cc4)CC3)CC2)ccc1Nc1ncc(Cl)c(Nc2ccccc2OC(=O)N(C)C)n1 (stereo not drawn) [Compound T-152] |  |  |  | 100 to 1000 | ≥ 1000 | ≥ 1000 |
| COc1cc(N2CCC[C@H](NC(=O)CN3CCC(c4ccc(NC5CCC(=O)NC5=O)cc4)CC3)C2)ccc1Nc1ncc(Cl)c(Nc2ccccc2C(C)=O)n1 (stereo partly drawn) [Compound T-166] | 100 to 1000 | ≥ 1000 | ≥ 1000 |  |  |  |
| COc1cc(N2CCC[C@H](N(C)CN3CCC(c4ccc(NC5CCC(=O)NC5=O)cc4)CC3)C2)ccc1Nc1ncc(Cl)c(Nc2ccccc2C(C)=O)n1 (stereo partly drawn) [Compound T-167] | 100 to 1000 | ≥ 1000 | ≥ 1000 |  |  |  |
| COc1cc(N2CC(N(C)C(=O)CN3CCC(c4ccc(NC5CCC(=O)NC5=O)cc4)CC3)C2)ccc1Nc1ncc(Cl)c(Nc2ccccc2C(C)=O)n1 (stereo not drawn) [Compound T-170] | 100 to 1000 | ≥ 1000 | ≥ 1000 |  |  |  |
| COc1cc(N2CC[C@@H](N(C)C(=O)CN3CCC(c4ccc(NC5CCC(=O)NC5=O)cc4)CC3)C2)ccc1Nc1ncc(Cl)c(Nc2ccccc2C(C)=O)n1 (stereo partly drawn) [Compound T-171] | 10 to 100 | 100 to 1000 | ≥ 1000 |  |  |  |
| COc1cc(N2CC[C@@H](NC(=O)CN3CCC(c4ccc(NC5CCC(=O)NC5=O)cc4)CC3)C2)ccc1Nc1ncc(Cl)c(Nc2ccccc2C(C)=O)n1 (stereo partly drawn) [Compound T-173] | 100 to 1000 | 100 to 1000 | ≥ 1000 |  |  |  |
| COc1cc(N2CC[C@H](NC(=O)CN3CCC(c4ccc(NC5CCC(=O)NC5=O)cc4)CC3)C2)ccc1Nc1ncc(Cl)c(Nc2ccccc2C(C)=O)n1 (stereo partly drawn) [Compound T-174] | 100 to 1000 | ≥ 1000 | ≥ 1000 |  |  |  |
| CC(=O)c1ccccc1Nc1nc(Nc2ccc(N3CCN(C(=O)CN4CCC(c5ccc(NC6CCC(=O)NC6=O)cc5)CC4)CC3)cc2OC(C)C)ncc1Cl (stereo not drawn) [Compound T-179] | 100 to 1000 | ≥ 1000 | ≥ 1000 |  |  |  |
| C=CC(=O)Nc1cc(Nc2ncc(C(F)(F)F)c(Nc3ccccc3)n2)c(OC)cc1N(C)CCN(C)C(=O)CN1CCC(c2ccc(NC3CCC(=O)NC3=O)cc2)CC1 (stereo not drawn) [Compound T-180] | 100 to 1000 | ≥ 1000 | ≥ 1000 |  |  |  |
| COc1cc(N2CCN(C(=O)CN3CCC(c4cccc(NC5CCC(=O)NC5=O)c4)CC3)CC2)ccc1Nc1ncc(Cl)c(Nc2ccccc2C(C)=O)n1 (stereo not drawn) [Compound T-181] | 100 to 1000 | ≥ 1000 | 100 to 1000 |  |  |  |
| COc1cc(N2CC3CN(C(=O)CN4CCC(c5ccc(NC6CCC(=O)NC6=O)cc5)CC4)CC3C2)ccc1Nc1ncc(Cl)c(Nc2ccccc2C(C)=O)n1 (stereo not drawn) [Compound T-188] | 10 to 100 | 100 to 1000 | 100 to 1000 |  |  |  |
| COc1cc(N2C[C@H]3CN(C(=O)CN4CCN(c5ccc(NC6CCC(=O)NC6=O)cc5)CC4)C[C@H]3C2)ccc1Nc1ncc(Cl)c(Nc2ccccc2C(C)=O)n1 (stereo partly drawn) [Compound T-189] | 10 to 100 | 100 to 1000 | 100 to 1000 |  |  |  |
| COc1cc(N2CCN(C(=O)CN3CCC(c4ccccc4NC4CCC(=O)NC4=O)CC3)CC2)ccc1Nc1ncc(Cl)c(Nc2ccccc2C(C)=O)n1 (stereo not drawn) [Compound T-193] | 100 to 1000 | 100 to 1000 | 100 to 1000 |  |  |  |
| COc1cc(N2CCN(C(=O)CN3CCC(c4ccc(NC5CCC(=O)NC5=O)cc4)CC3)CC2)ccc1Nc1ncc(Cl)c(Nc2ccccc2NC(C)=O)n1 (stereo not drawn) [Compound T-195] | 10 to 100 | 100 to 1000 | 100 to 1000 |  |  |  |
| COc1cc(N2CCN(C(=O)CN3CCC(c4ccc(NC5CCC(=O)NC5=O)cc4)CC3)CC2)ccc1Nc1ncc(Cl)c(Nc2ccccc2C(C)(C)O)n1 (stereo not drawn) [Compound T-196] | 10 to 100 | 100 to 1000 | 100 to 1000 |  |  |  |

| SMILES | IC50 [1, 4] [nM] | IC50 ([2]; HCC827, 72 h) [nM] | IC50 ([3]; PC-9, 72 h) [nM] | IC50 ([1]; NCI-H1975, Table 2, H1975 cells) [nM] | IC50 [2] [nM] | IC50 [3] [nM] |
| --- | --- | --- | --- | --- | --- | --- |
| COc1cc(N2CCN(C(=O)CN3CCC(c4ccc(NC5CCC(=O)NC5=O)cc4)CC3)CC2)ccc1Nc1ncc(Cl)c(Nc2ccc(F)cc2C(C)(C)O)n1 (stereo not drawn) [Compound T-199] | 10 to 100 | 100 to 1000 | 100 to 1000 |  |  |  |
| COc1cc(N2CCN(C(=O)CN3CCC(c4ccc(NC5CCC(=O)NC5=O)cc4)CC3)CC2)ccc1Nc1ncc(Cl)c(Nc2ccccc2OC)n1 (stereo not drawn) [Compound T-200] | 10 to 100 | 100 to 1000 | 100 to 1000 |  |  |  |
| COc1cc(N2CCN(CCC3CCN(c4ccc5c(c4)C(=O)N(C4CCC(=O)NC4=O)C5=O)CC3)CC2)ccc1Nc1ncc(Cl)c(Nc2ccccc2C(C)=O)n1 (stereo not drawn) [Compound T-212] | 100 to 1000 | 100 to 1000 | ≥ 1000 |  |  |  |
| COc1cc(OC2CCN(C(=O)CN3CCC(c4ccc(NC5CCC(=O)NC5=O)cc4)CC3)CC2)ccc1Nc1ncc(Cl)c(Nc2ccccc2C(C)=O)n1 (stereo not drawn) [Compound T-214] | 100 to 1000 | 100 to 1000 | ≥ 1000 |  |  |  |
| COc1cc(N2CCN(C(=O)CN3CCC(c4ccc(NC5CCC(=O)NC5=O)cc4)CC3)CC2)ccc1Nc1ncc(Cl)c(Nc2ccccc2NS(C)(=O)=O)n1 (stereo not drawn) [Compound T-218] | 10 to 100 | 10 to 100 | 100 to 1000 |  |  |  |
| COc1cc(N2CCC(CN3CCN(c4ccc5c(c4)C(=O)N(C4CCC(=O)NC4=O)C5=O)CC3)CC2)ccc1Nc1ncc(Cl)c(Nc2ccccc2C(C)=O)n1 (stereo not drawn) [Compound T-225] | 100 to 1000 | ≥ 1000 | ≥ 1000 |  |  |  |
| COc1cc(N2CCN(CC3CCN(c4ccc5c(c4)C(=O)N(C4CCC(=O)NC4=O)C5=O)CC3)CC2)ccc1Nc1ncc(Cl)c(Nc2ccccc2C(C)=O)n1 (stereo not drawn) [Compound T-226] | 100 to 1000 | 100 to 1000 | ≥ 1000 |  |  |  |
| COc1cc(N2CCN(C(=O)CC3CCN(c4ccc5c(c4)C(=O)N(C4CCC(=O)NC4=O)C5=O)CC3)CC2)ccc1Nc1ncc(Cl)c(Nc2ccccc2C(C)=O)n1 (stereo not drawn) [Compound T-231] | 100 to 1000 | 10 to 100 | ≥ 1000 |  |  |  |
| C=CC(=O)Nc1cc(Nc2nccc(-c3cn(C)c4ccccc34)n2)c(OC)cc1N(C)CCN(C)CC(=O)N1CCC(c2ccc(NC3CCC(=O)NC3=O)cc2)CC1 (stereo not drawn) [Compound T-237] | ≥ 1000 | 100 to 1000 | 100 to 1000 |  |  |  |
| COc1cc(N2CCN(c3ncc(Cl)c(Nc4ccccc4C(C)=O)n3)CC2)ncc1NC(=O)CN1CCC(c2ccc(NC3CCC(=O)NC3=O)cc2)CC1 (stereo not drawn) [Compound T-239] | ≥ 1000 | 100 to 1000 | ≥ 1000 |  |  |  |
| COc1cc(N2CCN(C(=O)CN3CCC(c4ccc(NC5CCC(=O)NC5=O)cc4)CC3)CC2)c(C)cc1Nc1ncc(Cl)c(Nc2ccccc2C(=O)N(C)C)n1 (stereo not drawn) [Compound T-241] | ≤ 10 | 100 to 1000 | 100 to 1000 |  |  |  |
| COc1cc(N2CCN(C(=O)CN3CCC(c4ccc(NC5CCC(=O)NC5=O)cc4)C3)CC2)ccc1Nc1ncc(Cl)c(Nc2ccccc2C(C)=O)n1 (stereo not drawn) [Compound T-242] | 100 to 1000 | 100 to 1000 | 100 to 1000 |  |  |  |
| COc1cc(N2CCN(C(=O)CN3CCC(c4ccc(NC5CCC(=O)NC5=O)cc4)CC3)CC2)ccc1Nc1ncc(Cl)c(Nc2ccc(Cl)cc2C(C)(C)O)n1 (stereo not drawn) [Compound T-243] | ≤ 10 | 10 to 100 | 10 to 100 |  |  |  |
| COc1cc(N2CCN(C(=O)CN3CCC(c4ccc(NC5CCC(=O)NC5=O)cc4)CC3)CC2)ncc1Nc1ncc(Cl)c(Nc2ccccc2C(C)=O)n1 (stereo not drawn) [Compound T-244] | 10 to 100 | 10 to 100 | 10 to 100 |  |  |  |
| COc1ccc(Nc2nc(Nc3ccc(N4CCN(C(=O)CN5CCC(c6ccc(NC7CCC(=O)NC7=O)cc6)CC5)CC4)cc3OC)ncc2Cl)c(C(C)=O)c1 (stereo not drawn) [Compound T-249] | ≤ 10 | 10 to 100 | 10 to 100 |  |  |  |
| CNC(=O)c1ccccc1Nc1nc(Nc2cc(C)c(N3CCN(C(=O)CN4CCC(c5ccc(NC6CCC(=O)NC6=O)cc5)CC4)CC3)cc2OC)ncc1Br (stereo not drawn) [Compound T-255] | ≤ 10 | 10 to 100 | 10 to 100 |  |  |  |
